This is an account of results in patent US11549950B2, “Cryptic metabolites and method for activating silent biosynthetic gene clusters in diverse microorganisms” (The Trustees of Princeton University, priority 2017, dated 2023).

Some results are limits rather than exact numbers.

Assay in all cases: Antibacterial bioactivity (MIC) of keratinimicins, Table 1
One test relates to S. aureus MRSA. Format: cell-based, Staphylococcus aureus. The protocol: (§1) To determine antibacterial and antiviral performance, assays were performed. In one example, antibacterial assays were carried out by Micromyx, LLC in accordance with methods from the Clinical and Laboratory Standards Institute. Minimal inhibitory concentrations were determined with the following strains: S. aureus ATCC 29213, S. aureus MMX 2011, S. pneumoniae ATCC 49619, S. pyogenes MMX 6253, S. agalactiae MMX 6189, E. faecalis ATCC 29212, E. faecalis MMX 486, B. subtilis ATCC 6633, E. coli ATCC 25922, K. pneumoniae MMX 214, P. aeruginosa ATCC 27853, A. baumannii ATCC 19606, V. cholerae BAA-2163, C. difficile ATCC 700057, and B. fragilis ATCC 25285.
(§2) These compounds are bioactive. In some instances, the compounds show activity against gram-positive bacteria. For example, although they may also show activity against gram-negative targets, the bioactivity of Keratinimicin B and C (FIGS. 21B and 21C) were tested against various gram-positive targets.

The next test concerns S. aureus MSSA. It counts as cell-based, Staphylococcus aureus. Here is the method: as §1, §2
The next test deals with S. pneumoniae. It counts as cell-based, Streptococcus pneumoniae. Here is the method:
as §1, §2

In another test the test system is S. pyogenes. Format: cell-based, Streptococcus pyogenes. The protocol: as §1, §2
For another test, the system named is S. agalactiae. Format: cell-based, Streptococcus agalactiae. The protocol: as §1, §2
Another test concerns E. faecalis VRE. Format: cell-based, Enterococcus faecalis. Here is the method: as §1, §2
A further test concerns E. faecalis VSE. It counts as cell-based, Enterococcus faecalis. Here is the method:
as §1, §2

The next test has as its system C. difficile. Format: cell-based, Clostridium difficile. The protocol:
as §1, §2

Turning to `CO[C@H]1[C@H](C)O[C@@H](O[C@@H]2c3ccc(c(Cl)c3)Oc3cc4cc(c3O[C@@H]3O[C@H](CO)[C@@H](O)[C@H](O)[C@H]3O[C@H]3C[C@H](N)[C@@H](O)C(C)O3)Oc3ccc(cc3)[C@@H](O)[C@@H](NC(=O)[C@H](N)c3ccc(O)c(Cl)c3)C(=O)N[C@@H](Cc3ccccc3)C(=O)N[C@H]4C(=O)N[C@H]3C(=O)N[C@@H]2C(=O)N[C@H](C(=O)O)c2cc(O)cc(O)c2-c2cc3ccc2O)C[C@@H]1N` (some centres unmarked) [Keratinimicin B], the “Bioactivity (minimal inhibitory concentration)” value in the test with S. aureus MRSA is 4 µg/mL; with S. aureus MSSA it was 8 µg/mL; in the test with S. pneumoniae, 0.25 µg/mL; with S. pyogenes, 0.5 µg/mL; in the test with S. agalactiae, 1 µg/mL; in the test with E. faecalis VRE it was above 64 µg/mL. Besides, the “Bioactivity (minimal inhibitory concentration)” value with E. faecalis VSE is 4 µg/mL; in the test on C. difficile it was 0.5 µg/mL.
